# Tested on: TPM3-NTRK1-wt IC50 / primary target (e.g. CD74-ROS1-wt) IC50, Ba/F3 cells
# Experiment: Cell assay TRKA selectivity (TRKA potency divided by primary target potency)
# Type: cell-based
# Conditions: for TPM3-NTRK1-wt/CD74-ROS1-G2032R: TRKA selectivity ratio: TPM3-NTRK1-wt IC50 / CD74-ROS1-G2032R IC50, Ba/F3 cells; for TPM3-NTRK1-wt/CD74-ROS1-wt: TRKA selectivity ratio: TPM3-NTRK1-wt IC50 / CD74-ROS1-wt IC50, Ba/F3 cells; for TPM3-NTRK1-wt/EML4-ALK-L1196M-G1202R: TRKA selectivity ratio: TPM3-NTRK1-wt IC50 / EML4-ALK-L1196M-G1202R IC50, Ba/F3 cells; for TPM3-NTRK1-wt/EML4-ALK-wt: TRKA selectivity ratio: TPM3-NTRK1-wt IC50 / EML4-ALK-wt IC50, Ba/F3 cells
# Source text: Genes encoding CD74-ROS1 wild-type (wt), CD74-ROS1 G2032R, CD74-ROS1 S1986F, CD74-ROS1 L2026M, CD74-ROS1 D2033N, EML4-ALK wt (variant 1), EML4-ALK G1202R (variant 1), EML4-ALK L1196M/G1202R (variant 1), EML4-ALK G1202R/G1269A (variant 1), EML4-ALK G1202R/L1198F (variant 1), and TPM3-TRKA were synthesized at GeneRay, cloned into the retroviral construct pMSCV-puro (Biovector), and packaged into retroviral particles. The virus was used to infect Ba/F3 cells (RIKEN) at multiplicity of infection=1 for 1 day. Infected cells were rescued in media (RPMI-1640 with 10% fetal bovine serum and 1% streptomycin and penicillin) supplemented with mouse IL-3 (10 ng/mL) for 2 days, and stable cell lines were selected by IL-3 withdrawal and puromycin (0.8 μg/mL) for 7 days. Monoclones were selected by single-cell dilution in IL-3-free medium containing puromycin (0.8 μg/mL). Transformation of desired genes was confirmed by Sanger sequencing and western blot using the following antibodies: ROS1 (CST #3287), ALK (CST #3633), and pan-TRK (Abcam #76291).
# Stable cells were plated at 1,000 cells/well (40 μL) in a 384-well plate for 1 day. Test compounds (40 nL) were then added in a 3-fold dilution series using the TECAN EVO200 liquid handler and incubated for 72 hours. Plates were equilibrated at room temperature for 15 minutes followed by addition of 40 μL CellTiter-Glo reagent (Promega). Luminescence was measured on a plate reader. Half-maximal inhibitory concentration (IC50) was calculated from percent inhibition and inhibitor concentration using four-parameter logistic regression. […] Exemplary data is given in Table 4 (nd is not determined).
# TRKA selectivity was calculated by dividing a compound's TRKA potency by its primary target potency (e.g. TPM3-NTRK1-wt IC50/CD74-ROS1-wt IC50). Compound selectivity can be interpreted by binning ratio values: bin A for very high selectivity, ratio>30-fold; bin B for high selectivity, ratio>10-fold; bin C for moderate selectivity, ratio≥1; and bin D for low selectivity, ratio<1. […] (nd=not determined).
Structure (SMILES),TPM3-NTRK1-wt/CD74-ROS1-G2032R,TPM3-NTRK1-wt/CD74-ROS1-wt,TPM3-NTRK1-wt/EML4-ALK-L1196M-G1202R,TPM3-NTRK1-wt/EML4-ALK-wt
"Cc1cn2c(n1)-c1ccc(F)cc1[C@@H](C)Oc1cc(cnc1N)-c1c(c(C)nn1CC1CC1)C2 [Example 56, (19R)-3-(cyclopropylmethyl)-16-fluoro-5,10,19-trimethyl-20-oxa-3,4,8,11,23-pentaazapentacyclo[19.3.1.0^2,^6.0^8,^12.0^13,^18]pentacosa-1(24),2(6),4,9,11,13,15,17,21(25),22-decaen-22-amine]","D (bin D for low selectivity, ratio<1)","D (bin D for low selectivity, ratio<1)","D (bin D for low selectivity, ratio<1)","D (bin D for low selectivity, ratio<1)"
"C[C@H]1Oc2cc(cnc2N)-c2c(c(Cl)nn2CC2CC2)Cc2cn(C)nc2-c2ccc(F)cc21 [Example 133, (19R)-5-chloro-3-(cyclopropylmethyl)-16-fluoro-10,19-dimethyl-20-oxa-3,4,10,11,23-pentaazapentacyclo[19.3.1.0^2,^6.0^8,^12.0^13,^18]pentacosa-1(24),2(6),4,8,11,13,15,17,21(25),22-decaen-22-amine]","A (bin A for very high selectivity, ratio>30-fold)","A (bin A for very high selectivity, ratio>30-fold)","A (bin A for very high selectivity, ratio>30-fold)","A (bin A for very high selectivity, ratio>30-fold)"
"CC1Oc2cc(cnc2N)-c2c(cnn2CC(F)F)Cn2ccnc2-c2ccc(F)cc21 (centres unmarked) [Example 40, 3-(2,2-difluoroethyl)-16-fluoro-19-methyl-20-oxa-3,4,8,11,23-pentaazapentacyclo[19.3.1.0^2,^6.0^8,^12.0^13,^18]pentacosa-1(24),2(6),4,9,11,13,15,17,21(25),22-decaen-22-amine]","A (bin A for very high selectivity, ratio>30-fold)","A (bin A for very high selectivity, ratio>30-fold)","A (bin A for very high selectivity, ratio>30-fold)","A (bin A for very high selectivity, ratio>30-fold)"
"CC1Oc2cc(cnc2N)-c2c(cnn2C2CCC2)Cn2ccnc2-c2ccc(F)cc21 (centres unmarked) [Example 37, 3-cyclobutyl-16-fluoro-19-methyl-20-oxa-3,4,8,11,23-pentaazapentacyclo[19.3.1.0^2,^6.0^8,^12.0^13,^18]pentacosa-1(24),2(6),4,9,11,13,15,17,21(25),22-decaen-22-amine]","A (bin A for very high selectivity, ratio>30-fold)","A (bin A for very high selectivity, ratio>30-fold)","A (bin A for very high selectivity, ratio>30-fold)","A (bin A for very high selectivity, ratio>30-fold)"
"CCn1ncc2c1-c1cnc(N)c(c1)O[C@H](C)c1cc(F)ccc1-c1nccn1C2 [Example 31, (19R)-3-ethyl-16-fluoro-19-methyl-20-oxa-3,4,8,11,23-pentaazapentacyclo[19.3.1.0^2,^6.0^8,^12.0^13,^18]pentacosa-1(24),2(6),4,9,11,13,15,17,21(25),22-decaen-22-amine]","A (bin A for very high selectivity, ratio>30-fold)","A (bin A for very high selectivity, ratio>30-fold)","C (bin C for moderate selectivity, ratio≥1)","A (bin A for very high selectivity, ratio>30-fold)"
"CC1Oc2cc(cnc2N)-c2c(nn(C)c2C#N)Cc2cnccc2-c2ccc(F)cc21 (centres unmarked) [Example 59, 23-amino-17-fluoro-4,20-dimethyl-21-oxa-4,5,10,24-tetraazapentacyclo[20.3.1.0^2,^6.0^8,^13.0^14,^19]hexacosa-1(25),2,5,8(13),9,11,14,16,18,22(26),23-undecaene-3-carbonitrile]","C (bin C for moderate selectivity, ratio≥1)","A (bin A for very high selectivity, ratio>30-fold)","D (bin D for low selectivity, ratio<1)",–
"Cc1nc2c(s1)Cc1nnn(CC3CC3)c1-c1cnc(N)c(c1)O[C@H](C)c1cc(F)ccc1-2 [Example 114, (19R)-3-(cyclopropylmethyl)-16-fluoro-10,19-dimethyl-20-oxa-9-thia-3,4,5,11,23-pentaazapentacyclo[19.3.1.0^2,^6.0^8,^12.0^13,^18]pentacosa-1(24),2(6),4,8(12),10,13,15,17,21(25),22-decaen-22-amine]","A (bin A for very high selectivity, ratio>30-fold)","A (bin A for very high selectivity, ratio>30-fold)","A (bin A for very high selectivity, ratio>30-fold)","A (bin A for very high selectivity, ratio>30-fold)"
"CCn1ncc2c1-c1cnc(N)c(c1)OCc1cc(F)ccc1-n1ncc(F)c1C2 [Example 48, 3-ethyl-9,16-difluoro-20-oxa-3,4,11,12,23-pentaazapentacyclo[19.3.1.0^2,^6.0^8,^12.0^13,^18]pentacosa-1(24),2(6),4,8,10,13,15,17,21(25),22-decaen-22-amine]","A (bin A for very high selectivity, ratio>30-fold)","A (bin A for very high selectivity, ratio>30-fold)","B (bin B for high selectivity, ratio>10-fold)","A (bin A for very high selectivity, ratio>30-fold)"
"C[C@H]1Oc2cc(cnc2N)-c2c(cnn2CC2(C)CC2)Cc2cn(C)nc2-c2ccc(F)cc21 [Example 159, (19R)-16-fluoro-10,19-dimethyl-3-[(1-methylcyclopropyl)methyl]-20-oxa-3,4,10,11,23-pentaazapentacyclo[19.3.1.0^2,^6.0^8,^12.0^13,^18]pentacosa-1(24),2(6),4,8,11,13,15,17,21(25),22-decaen-22-amine]","A (bin A for very high selectivity, ratio>30-fold)","A (bin A for very high selectivity, ratio>30-fold)","B (bin B for high selectivity, ratio>10-fold)","A (bin A for very high selectivity, ratio>30-fold)"
"CCn1ncc2c1-c1cnc(N)c(c1)O[C@H](C)c1cc(F)ccc1-c1nccc(OC)c1C2 [Example 151, (20R)-3-ethyl-17-fluoro-9-methoxy-20-methyl-21-oxa-3,4,12,24-tetraazapentacyclo[20.3.1.0^2,^6.0^8,^13.0^14,^19]hexacosa-1(25),2(6),4,8(13),9,11,14,16,18,22(26),23-undecaen-23-amine]","A (bin A for very high selectivity, ratio>30-fold)","A (bin A for very high selectivity, ratio>30-fold)","C (bin C for moderate selectivity, ratio≥1)","A (bin A for very high selectivity, ratio>30-fold)"
"CCc1nn(C)c2c1-c1cnc(N)c(c1)O[C@H](C)c1cc(F)ccc1-c1nn(C)cc1C2 [Example 171, (19R)-3-ethyl-16-fluoro-5,10,19-trimethyl-20-oxa-4,5,10,11,23-pentaazapentacyclo[19.3.1.0^2,^6.0^8,^12.0^13,^18]pentacosa-1(24),2(6),3,8,11,13,15,17,21(25),22-decaen-22-amine]","A (bin A for very high selectivity, ratio>30-fold)","A (bin A for very high selectivity, ratio>30-fold)","B (bin B for high selectivity, ratio>10-fold)","A (bin A for very high selectivity, ratio>30-fold)"
"CC1Oc2cc(cnc2N)-c2c(cnn2CCF)Cn2ccnc2-c2ccc(F)cc21 (centres unmarked) [Example 39, 16-fluoro-3-(2-fluoroethyl)-19-methyl-20-oxa-3,4,8,11,23-pentaazapentacyclo[19.3.1.0^2,^6.0^8,^12.0^13,^18]pentacosa-1(24),2(6),4,9,11,13,15,17,21(25),22-decaen-22-amine]","A (bin A for very high selectivity, ratio>30-fold)","A (bin A for very high selectivity, ratio>30-fold)","C (bin C for moderate selectivity, ratio≥1)","A (bin A for very high selectivity, ratio>30-fold)"

# Reference: patent US11667649B2, “Heteroaromatic macrocyclic ether chemotherapeutic agents” (Nuvalent, Inc., priority 2020, dated 2023)
